Results reported in US20130190370A1, “Novel Tetrahydronaphalene Antagonists to the Thromboxane A2 (TP) Receptor” (The Trustees of the University of Pennsylvania, priority 2010, published 2013).

Experiments:
[1] = target: T1, mouse TP receptor (Mus musculus, UniProt P30987); test: Radioligand binding assay (3H-SQ29,548), mouse TP receptor; settings: read-out: Kd / affinity at the mouse TP receptor
T1 construct: expressed in transfected cells
T1 sequence (P30987 1-341): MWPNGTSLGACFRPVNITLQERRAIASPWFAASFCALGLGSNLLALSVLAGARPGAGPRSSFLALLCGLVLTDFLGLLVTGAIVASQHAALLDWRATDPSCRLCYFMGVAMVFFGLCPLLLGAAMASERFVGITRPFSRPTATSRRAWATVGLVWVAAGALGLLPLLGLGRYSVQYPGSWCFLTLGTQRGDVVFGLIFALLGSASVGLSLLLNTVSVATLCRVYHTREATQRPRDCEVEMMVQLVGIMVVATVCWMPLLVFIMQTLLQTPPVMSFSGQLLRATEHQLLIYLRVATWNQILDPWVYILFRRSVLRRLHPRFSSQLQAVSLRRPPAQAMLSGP
Experimental: QBI-HEK 293A cells expressing human or mouse TxA2 (TP) receptor were grown as described previously and harvested in phosphate-buffered saline with 1 mM EDTA. The cell pellet was homogenized in a glass homogenizer in 20 mM Hepes, 1 mM EGTA, 0.5 mM DTT with protease inhibitor cocktail. The homogenate was initially centrifuged at 1000×g for 10 minutes at 8° C. to remove cell debris. The homogenate was then centrifuged in a Beckman L8-70M ultracentrifuge (Beckman-Coulter, Brea, Calif., USA) at 21,000 rpm for 30 minutes at 4° C., and the pellet was resuspended in 20 mM Hepes, 1 mM EGTA, 100 mM NaCl. Membrane preparations were normalized to protein level as determined with a BCA assay (ThermoFisher, Rockland, Ill.) and stored at −80° C.
Test antagonists were incubated at 10 different concentrations with 25 μg membrane and 25 nM ^3H-SQ29,548 (PerkinElmer, Waltham, Mass., USA) in 50 mM Tris, 4 mM CaCl2, 0.1% ascorbic acid pH 7.5 for 2 hours at 25° C. in 96-well polystyrene plates. Separation of bound from free radioligand was accomplished by rapid vacuum filtration onto 96-well GF/B filter plates (PerkinElmer, Waltham, Mass., USA). Filters were washed 8 times in 50 mM Tris, pH 6.9 and allowed to dry for 16 hours, Plates were sealed and filters dissolved in 50 μL Betaplate Scintillation fluid (PerkinElmer, Waltham, Mass., USA) and read on a scintillation counter. Data are presented as percent total binding as calculated by a minimum of 3 wells containing membrane and ^3H-SQ29,548 without antagonist.
Equilibrium dissociation constants (Kd), IC50, and Schild regression analyses was performed with GraphPad Prism software (GraphPad Software Inc., La Jolla, Calif., USA).
To facilitate the characterization of the new compounds, cell-based TP receptor functional assays were optimized. HEK293 clones have been produced that stably express the human (hTP) or mouse (mTP) TP receptor (a isoform), and treatment of these clones with I-BOP ([1S-[1α,2α(Z),3β(1E,3S*),4α]]-7-[3-[3-hydroxy-4-(4-iodophenoxy)-1-butenyl]-7-oxabicyclo[2.2.1]hept-2-yl]-5-heptenoic acid) results in increased production of inositol triphosphate (IP3) (Knezevic, et al., 1993, Blood 82:A156; Shenker, et al., 1991, J Biol Chem 266:9309-9313; Huang, et al., 2004, Cell Signal 16:521-533) which can be quantified by measuring the breakdown product, inositol monophosphates (IP1), using a commercial time-resolved fluorescence assay. […] A radioligand binding assay was also developed to allow for the determination of binding affinities of compounds at the hTP and mTP receptors.

[2] = in vivo; settings: female, B6C3HF1, mouse, in vivo, ip, 5 mg/kg
Experimental: One-month old B6C3HF1 female mice were given intraperitoneal injections of compounds at 5 mg/kg. 1 hour after injection, mice were lethally anesthetized with an intraperitoneal injection of ketamine hydrochloride (1 mg/10 g) and xylazine (0.1 mg/10 g) and perfused intracardially with PBS in accordance with protocols approved by the University of Pennsylvania.
Brain samples were homogenized in 10 mM ammonium acetate, pH 5.7 (1:2; w/v) using a handheld sonic homogenizer. Compound from 50 μL of brain homogenate or plasma was extracted with 200 μL acetonitrile, centrifuged, and the supernatant removed for LC/MS/MS analysis. Compounds were detected using multiple reaction monitoring (MRM) of their specific collision-induced ion transitions and quantified using peak areas.
The LC/MS/MS system was comprised of an Agility UPLC, a TQ MS, and controlled using MassLynx software (Waters Corporation, Milford, Mass., USA). Samples were separated on an Aquity BEH C18 column (1.7 μm, 2.1×50 mm) at 35° C. For operation in positive electrospray ionization mode, the mobile phase A was 0.1% (v/v) formic acid, and B was either acetonitrile or methanol with 0.1% (v/v) formic acid. For operation in negative electrospray ionization mode, the mobile phase A was 10 mM ammonium acetate, and B was methanol with 10 mM ammonium acetate, Injections of 5 μL were separated at a flow rate of 0.6 mL/min using a gradient from 5% to 95% B over two minutes followed by wash and re-equilibration steps.
The MS was operated with a desolvation temperature of 450° C. and a source temperature of 150° C. Desolvation and source nitrogen gas flows were 900 L/hr and 50 L/hr, respectively. Collision cell argon gas flow was 0.1 mL/min. Source and analyzer voltages were optimized for each compound using the MassLynx auto tune utility. Compound standards at 1000 ng/mL in 50% acetonitrile were infused at 30 μL/min and combined with flow from the UPLC at 0.6 mL/min and 50% B.
Standard curves were generated from spiked brain homogenate and plasma prepared at 4, 40, 400 and 4000 ng/mL and extracted as above. Peak area was plotted versus concentration and a 1/x weighted linear regression curve was used to quantify the unknowns using the average peak area from triplicate injections,
The following experiments were designed to analyze TP receptor antagonists to determine their relative BBB penetration. The TP receptor antagonists were administered via i.p. injection at 5 mg/kg to normal mice, and brain and plasma compound concentrations were assessed by LC-MS/MS at 1 and 4 hours after dosing.
To examine the blood-brain barrier permeability of these compounds, one-month old B6C3F1 mice were injected at 5 mg/kg and sacrificed 1 hour after injection.

[3] = B/Pfree (unbound drug brain-to-plasma ratio)

Cc1ccc2c(c1CCC(=O)O)CC[C@@H](NS(=O)(=O)c1ccc(Cl)cc1)C2 [Compound S18886]
Kd [1]: 360 pM | Kp at 1 h ([2]; B/P (brain-to-plasma ratio)): 0.02 | Kp at 4 h ([2]; B/P (brain-to-plasma ratio)): 0.05 | Kp at 1 h [2, 3]: 0.04 | Kp at 4 h [2, 3]: 0.08 | concentration at 1 h ([2]; Brain): 42.4 ng/mL | concentration at 4 h ([2]; Brain): 9 ng/mL | concentration at 1 h ([2]; Plasma): 1710 ng/mL | concentration at 4 h ([2]; Plasma): 190 ng/mL
